According to article PMC8209153, “Improvement in aqueous solubility of achiral symmetric cyclofenil by modification to a chiral asymmetric analog” (Scientific Reports, 2021):
Values after ≈ are worked out from the molar mass of the structure shown.

Key:
[1] = system: human cryopreserved hepatocytes; assay: Metabolic rate of prodrugs in human cryopreserved hepatocytes; type: in vitro ADME; conditions: human hepatocytes 1.0×10^6 cells/mL, 50 μM, 2 h, 37 °C
Experimental: The metabolic rate of prodrugs was evaluated using human cryopreserved hepatocytes (Table 3). Although the metabolic rate of 3d with a bulky acyl group was decreased, most of the asymmetric structural analogs, including those with improved aqueous solubility (3b, 4a, (R)-4c), were metabolized to the active form as quickly as 1. Thus, we concluded that the chemical modifications applied here had little effect on the metabolic rate.
(§1) Test compounds (final 50 μM) in DMSO (final 0.5%) were added to a suspension of human hepatocytes (HMCS1S, Thermo Fisher Scientific) at a density of 1.0×10^6 cells/mL. The cells were incubated at 37 °C in humidified incubator (5% CO2) for 2 h, and then acetonitrile was added to stop the reaction. The mixture was vortexed and centrifuged at 15000 rpm for 10 min. HPLC analysis of the supernatant was performed on an analytical column (ODS reversed-phase column, 5 μm, 4.6 mm x 150 mm) eluted with a mobile phase consisting of H2O and CH3CN at a flow rate of 1.0 mL/min at 37 °C, with UV monitoring at 254 nm. Because some analogs were hydrolyzed in the absence of hepatocytes, we also evaluated the hydrolysis rate without hepatocytes.

[2] = Membrane permeability by retention on IAM column; type: in vitro ADME; conditions: IAM.PC.DD2 column, 0.1 M phosphate buffer (pH 6.8) in 60% CH3CN, 1.0 mL/min, 37 °C
Experimental: Membrane permeability was determined by HPLC on an IAM.PC.DD2 column (Regis Technologies, Inc., 10 μm, 300 Å, 30 mm × 4.6 mm) eluted with mobile phase consisting of 0.1 M phosphate buffer (pH 6.8) and CH3CN (4:6) at a flow rate of 1.0 mL/min, with UV monitoring at 254 nm, 37 °C.
Firstly, we evaluated membrane permeability by using an Immobilized Artificial Membrane (IAM) column, which contains silica gel bearing phosphatidylcholine and widely utilized to predict membrane permeability[31],[32].

[3] = LogP; type: physicochemical
Source text: LogP values of all analogs were higher than that of 1, as expected. […] The observation that the measured crystal densities of 3b, 4a and (R)-4c were lower than that of 1 supports this idea.

[4] = Thermodynamic aqueous solubility of the most stable crystals; type: physicochemical; conditions: for solubility at 48 h: phosphate buffer/EtOH (6:4), aqueous with cosolvent or surfactant or cyclodextrin, thermodynamic from solid, mixture of 0.067 M phosphate buffer (pH 6.8) and EtOH (6:4), shaken 48 h at 4 °C, most stable crystals; for Fold more soluble than symmetric isomer 6: relative to 6
Experimental: The crystals were ground with an agate mortar and suspended in a mixture of 0.067 M phosphate buffer (pH 6.8) and EtOH (6:4). The suspension was shaken for 48 h at 4 °C, then filtered through a Millipore Millex-LG filter (0.20 μm). The filtrate was diluted in DMF and subjected to HPLC. The solubility was calculated by the absolute calibration curve method. We used a mixed solvent because the solubility in 0.067 M phosphate buffer (pH 6.8) was too low to allow quantification. EtOH is used clinically as a solubilizer for insoluble drugs such as taxol and pacritaxel. When the solutions were shaken at 37 °C, hydrolysis of the ester moiety occurred, and therefore the suspensions were shaken at 4 °C.

[5] = Hydrolysis of prodrugs without hepatocytes; type: in vitro ADME; conditions: 50 μM, 2 h, 37 °C
Experimental: as §1

[6] = Crystal density (X-ray crystallography); type: physicochemical; conditions: measured crystal density
[7] = Aqueous solubility in 0.067 M phosphate buffer pH 7.4; type: physicochemical
Experimental: Cyclofenil (1) is an antagonist of estrogen receptors (ER) α and β that is clinically used to treat menstrual disturbances, anovulatory infertility and menopausal symptoms (Fig. 1). However, 1 has poor aqueous solubility (< 1 μg/mL in 0.067 M phosphate buffer pH 7.4). We considered that this low solubility might be due to the symmetric structure (σ = 2, point group: C2v), and we hypothesized that chemical modification of 1 to an asymmetric structure (point group: Cs and C1) would improve the aqueous solubility. To investigate the relationship between molecular shape (symmetry) and aqueous solubility, we focused on a small chemical modification, that is, introduction of a hydrophobic alkyl group. Cyclofenil (1) is a prodrug that is hydrolyzed by esterases after administration, and the active form is diol 2. Therefore, we initially considered that replacement of an acetyl group on 1 with a different acyl group (3a–d) might improve the aqueous solubility without loss of biological activity. As a second approach, we designed methylated analogs 4a–c substituted at the 2-/3-position of the phenyl group or the 3-position of the cyclohexyl group, respectively. We also designed symmetrical analogs 5a–c and 6 for comparison.

[8] = target: T1, ERα (Homo sapiens, UniProt P03372); assay: Luciferase reporter gene assay, ERα antagonistic activity; type: cell-based; conditions: HEK 293 cells, GAL4N-human ERα ligand binding domain, with 0.3 nM estradiol, 24 h; mean ± SD
T1 construct: expressed in transfected cells; host or cells: HEK 293 cells
T1 sequence (P03372 311-547 limits assumed): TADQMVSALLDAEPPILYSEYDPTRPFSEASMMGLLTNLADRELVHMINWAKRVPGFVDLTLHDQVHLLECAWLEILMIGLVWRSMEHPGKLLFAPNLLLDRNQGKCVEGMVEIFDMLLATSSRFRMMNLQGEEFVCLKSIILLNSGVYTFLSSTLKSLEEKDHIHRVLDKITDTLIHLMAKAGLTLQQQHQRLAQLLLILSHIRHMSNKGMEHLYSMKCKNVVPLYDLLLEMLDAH
Experimental: (§2) HEK 293 cells were cultured in DMEM supplemented with 10% FBS and penicillin and streptomycin at 37 °C in a humidified incubator (5% CO2).
(§3) HEK 293 cells were plated at 20% confluence in a 96-well plate at 24 h prior to transfection. Transfection of plasmids (CMX-GAL4N-human ERα/β ligand binding domain, TK-MH100x4-Luc, CMX-β-galactosidase) was performed by the calcium phosphate coprecipitation method. Test compounds in DMSO (final 0.5%) were added at 24 h after transfection, together with 0.3 nM estradiol. The plate was incubated for 24 h, then luciferase substrate solution was added to each well and luminescence was measured on an EnVision microplate reader. β-Galactosidase was added and the absorbance was measured on the microplate reader with emission detection at 405 nm. Each sample was evaluated in triplicate for two times and the mean value was calculated. A six-point sigmoidal dose-response curve was generated for each compound. The IC50 value for each compound was calculated by Origin software. In Table 4, biological reproducibility is reported as the mean IC50 SD.

[9] = target: T2, ERβ (Homo sapiens, UniProt Q92731); assay: Luciferase reporter gene assay, ERβ antagonistic activity; type: cell-based; conditions: HEK 293 cells, GAL4N-human ERβ ligand binding domain, with 0.3 nM estradiol, 24 h; mean ± SD
T2 construct: expressed in transfected cells; host or cells: HEK 293 cells
Experimental: as §2, §3

[10] = phosphate buffer (pH 6.8)/EtOH (6:4)

T2 sequence (Q92731 264-498 limits assumed): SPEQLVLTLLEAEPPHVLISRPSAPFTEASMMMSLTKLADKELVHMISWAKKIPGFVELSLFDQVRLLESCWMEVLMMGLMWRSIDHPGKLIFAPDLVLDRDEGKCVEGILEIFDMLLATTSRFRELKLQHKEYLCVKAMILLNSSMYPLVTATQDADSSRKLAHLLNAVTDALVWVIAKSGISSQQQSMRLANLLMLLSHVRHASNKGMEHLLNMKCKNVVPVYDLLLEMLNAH

Crystal density [6] [g/mL]	solubility [7] [µg/mL]	Fold more soluble than 1 ([4]; relative to cyclofenil (1), phosphate buffer (pH 6.8)/EtOH (6:4)) [fold]	IC50 [8] [µM]	IC50 [9] [µM]	Compound	Hydrolysis rate with hepatocytes [1] [%]	Retention time on IAM column [2] [min]	logP [3]	melting point [°C]	solubility at 48 h [4] [µg/mL]	Hydrolysis rate without hepatocytes [5] [%]	Fold more soluble than symmetric isomer 6 [4, 10] [fold]	Fold more soluble than symmetric isomer 5a ([4]; relative to 5a, phosphate buffer (pH 6.8)/EtOH (6:4)) [fold]
					CC(=O)Oc1ccc(C(=C2CCCCC2)c2ccc(OC(=O)C(C)(C)C)cc2)cc1 [Compound 3d, 4-((4-Acetoxyphenyl)(cyclohexylidene)methyl)phenylpivalate]	77.7	8.44	6.5	127	2.25 (≈ 5.53 µM)	0		
					CCC(=O)Oc1ccc(C(=C2CCCCC2)c2ccc(OC(C)=O)cc2)cc1 [Compound 3a, 4-((4-Acetoxyphenyl)(cyclohexylidene)methyl)phenylpropionate]	100	4.22	5.48	132.8	3.38 (≈ 8.93 µM)	15.8		
1.244					CCCC(=O)Oc1ccc(C(=C2CCCCC2)c2ccc(OC(=O)CCC)cc2)cc1 [Compound 5b, (Cyclohexylidenemethylene)bis(4,1-phenylene)dibutyrate]			7.08	80.9	0.964 (≈ 2.29 µM)			
1.268	< 1				CC(=O)Oc1ccc(C(=C2CCCCC2)c2ccc(OC(C)=O)cc2)cc1 [Compound 1, cyclofenil]	100	3.15	4.91		7.76 (≈ 21.3 µM)	14.8		
					CC(C)C(=O)Oc1ccc(C(=C2CCCCC2)c2ccc(OC(=O)C(C)C)cc2)cc1 [Compound 5c, (Cyclohexylidenemethylene)bis(4,1-phenylene)bis(2-methylpropanoate)]			7.16	129	0.0811 (≈ 0.193 µM)			
1.227		3.6			CC(=O)Oc1ccc(C(=C2CCC[C@@H](C)C2)c2ccc(OC(C)=O)cc2)cc1 [(R)-4c, (R)-((3-Methylcyclohexylidene)methylene)bis(4,1-phenylene)diacetate]	100	3.93	5.34	92	27.8 (≈ 73.5 µM)	13.8	7.7	
			0.013 ± 0.0075	0.0045 ± 0.00099	Oc1ccc(C(=C2CCCCC2)c2ccc(O)cc2)cc1 [Compound 2, Bis(4-hydroxyphenyl)methylenecyclohexane, reference compound]								
1.243					CC(=O)Oc1ccc(C(=C2CCC(C)CC2)c2ccc(OC(C)=O)cc2)cc1 (stereo not shown) [Compound 6, ((4-Methylcyclohexylidene)methylene)bis(4,1-phenylene)diacetate]			5.41	137	3.61 (≈ 9.54 µM)			
			0.12 ± 0.0071	0.051 ± 0.04	Cc1cc(C(=C2CCCCC2)c2ccc(O)cc2)ccc1O [Compound 10a, 4-(Cyclohexylidene(4-hydroxyphenyl)methyl)-2-methylphenol]								
					CC(=O)Oc1ccc(C(=C2CCCCC2)c2ccc(OC(C)=O)cc2C)cc1 [Compound 4b, 4-((4-Acetoxy-2-methylphenyl)(cyclohexylidene)methyl)phenylacetate]			5.12	99.9	23.6 (≈ 62.4 µM)		6.5	
					CC(=O)Oc1ccc(C(=C2CCCCC2)c2ccc(OC(=O)C(C)C)cc2)cc1 [Compound 3c, 4-((4-Acetoxyphenyl)(cyclohexylidene)methyl)phenylisobutyrate]	94.5	5.93	6.01	136.5	0.719 (≈ 1.83 µM)	0		
			0.016 ± 0.00071	0.0045 ± 0.00057	C[C@@H]1CCCC(=C(c2ccc(O)cc2)c2ccc(O)cc2)C1 [(R)-13a, (R)-4,4’-((3-Methylcyclohexylidene)methylene)diphenol]								
					CCC(=O)Oc1ccc(C(=C2CCCCC2)c2ccc(OC(=O)CC)cc2)cc1 [Compound 5a, (Cyclohexylidenemethylene)bis(4,1-phenylene)dipropionate]			6.02	139	0.622 (≈ 1.58 µM)			
					CC(=O)Oc1ccc(C(=C2CCCCC2)c2ccc(OC(C)=O)c(C)c2)cc1 [Compound 4a, 4-((4-Acetoxy-3-methylphenyl)(cyclohexylidene)methyl)phenylacetate]	100	3.72	5.26	114	10.3 (≈ 27.2 µM)	0	2.9	

Compound	Crystal density [6] [g/mL]	solubility [7] [µg/mL]	Fold more soluble than 1 ([4]; relative to cyclofenil (1), phosphate buffer (pH 6.8)/EtOH (6:4)) [fold]	IC50 [8] [µM]	IC50 [9] [µM]	Hydrolysis rate with hepatocytes [1] [%]	Retention time on IAM column [2] [min]	logP [3]	melting point [°C]	solubility at 48 h [4] [µg/mL]	Hydrolysis rate without hepatocytes [5] [%]	Fold more soluble than symmetric isomer 6 [4, 10] [fold]	Fold more soluble than symmetric isomer 5a ([4]; relative to 5a, phosphate buffer (pH 6.8)/EtOH (6:4)) [fold]
CCCC(=O)Oc1ccc(C(=C2CCCCC2)c2ccc(OC(C)=O)cc2)cc1 [Compound 3b, 4-((4-Acetoxyphenyl)(cyclohexylidene)methyl)phenylbutyrate]	1.236					92.1	5.97	6	69	10.8 (≈ 27.5 µM)	6.3		17.3
